# Test system: E7 peptide-pulsed EL4 cells
# Assay: Cytotoxic lymphocyte (4-hour 51Cr-release) assay on spleen cells of immunized mice
# Format: in vivo, C57BL/6 mice
# Settings: C57BL/6 (B6) (H-2b) mice
# Procedure: A peptide antigen formulation for use within the present example was prepared in an emulsion by a two-syringe system containing 1:1 incomplete Freund's Adjuvant with 100 μg HPV16 E7 peptide (49-57), 20 μg PCLUS-6.1 helper epitope (see, U.S. Pat. No. 5,939,074; U.S. Pat. No. 5,976,541; U.S. Pat. No. 5,030,449; U.S. Pat. No. 5,081,226; U.S. Pat. No. 5,932,218; U.S. patent application Ser. No. 08/060988, filed May 14, 1993, corresponding to EP 0 710 572 Bi; WO 94/26785; and
# U.S. patent application Ser. No. 09/455,076, each incorporated herein by reference), 50,000 U IL-2, 10X PBS and double distilled water. The B7-1 expressing DNA plasmid (400 μg) was prepared in 100 μl water. […]
# Procedures to measure CTL activity are well known and are described elsewhere (see, e.g. Chen et al., Cell 71:1093-1102, 1992). […] Supernatants were harvested and counted using a gamma counter. The percentage of specific 51 Cr-release was calculated as follows: 100 X (experimental release−spontaneous release)/(maximum release−spontaneous release). Spontaneous release was determined from target cells incubated without effector cells; maximum release was determined from target cells incubated in the presence of 1% Triton X-100.
substance,measurement,value
"HPV16 E7 peptide(49-57): H2Db binding antigenic peptide of human papilloma virus 16 E7 protein, residues 49-57 (RAHYNIVTF; UniProt P03129 49-57, looked up, fragment)",Immunogenicity of the peptide (in words),immunogenic
